What was measured:
[1] = tested on: cardiac rhythm disorders; assay: Anti-arythmic action in the rat (aconitine perfusion); format: in vivo; conditions: intravenous, 5 minutes before aconitine 10 micrograms/mn, anaesthetised male rat
Method: 2) Anti-arythmic action in the rat
Male rate weighing 300-350 g anaesthetised by interperitonal route using 1.20 g/kg of urethane are tracheotomized and subjected to artificial respiration (40-50 insufflations of 3 ml/minute).
needles are implanted subcutaneously so as to record the rats' electrocardiogram on the DII derivation signal.
The test products are administered by intravenous route. Five minutes after administration of the product, the jugular vein is perfused with aconitine at the rate of 10 micrograms/mn and the time taken for the appearance of cardiac rhythm disorders is noted.
The results are expressed as a percentage of the increase in the time taken for cardiac rhythm disorders to appear relative to the controls and according to the dose of the test product.

[2] = biological target: T1, opiated K Receptor (Cavia porcellus, UniProt P41144); assay: Bonding to the opiated K Receptor in Vitro; format: binding; conditions: displacement of 1 nM 3H-ethylketocyclazocin, guinea pig brain membranes, Tris pH 7.7, 25° C., 40 minutes
T1 construct: Membrane samples preserved at -30° C; (optionally for approximately 30 days) are used and prepared from guinea pig brains; from tissue; host or cells: guinea pig brain membranes
T1 sequence (P41144 whole entry): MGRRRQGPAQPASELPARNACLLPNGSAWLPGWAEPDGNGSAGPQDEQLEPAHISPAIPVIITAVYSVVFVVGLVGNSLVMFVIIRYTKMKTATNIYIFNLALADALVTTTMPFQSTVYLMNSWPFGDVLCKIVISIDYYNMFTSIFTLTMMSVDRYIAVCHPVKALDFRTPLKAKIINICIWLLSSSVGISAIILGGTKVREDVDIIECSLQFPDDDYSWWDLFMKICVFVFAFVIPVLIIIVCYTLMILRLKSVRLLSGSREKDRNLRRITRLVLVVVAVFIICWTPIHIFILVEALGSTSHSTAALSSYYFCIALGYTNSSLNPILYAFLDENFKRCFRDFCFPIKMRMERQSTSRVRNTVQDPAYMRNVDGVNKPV
Method: 1) Bonding to the opiated K Receptor in Vitro
Membrane samples preserved at -30° C. (optionally for approximately 30 days) are used and prepared from guinea pig brains.
These samples are put in suspension in Tris pH 7.7 buffer. Fractions of 2 cm^3 are distributed in hemolysis tubes and 1 nM of 9^3 H-ethylketocyclazocin and the product to be studied are added. The product is first tested at 5×10^-6 M (in triplicate). When the test product displaces more than 50% of the radioactivity linked specifically to the receptor, it is tested again according to a range of 7 doses so as to determine the dose that inhibits 50% of the radioactivity linked specifically to the receptor. Thus the 50% inhibiting concentration is determined.
The non-specific bond is determined by the addition of known product under the name U-50488 H (Lahti et al. 1982, Life Sci. 31, 2257) at 10^-5 M (in triplicate). After incubating at 25° C. for 40 minutes, returning to the water bath at 0° C. for 5 minutes, filtering under vacuum, rinsing with Tris pH 7.7 buffer, the radioactivity is counted in the presence of Trition scintillator.
The result is expressed directly as 50% inhibiting concentration (IC50), namely as the concentration of studied product expressed in nM, necessary to displace 50% of the radioactivity specifically fixed on the studied receptor.

| Compound | Percentage increase in time (taken for cardiac rhythm disorders to appear relative to the controls) ([1]; dose 2.5 mg/kg) [%] | Percentage increase in time (taken for cardiac rhythm disorders to appear relative to the controls) ([1]; dose 5 mg/kg) [%] | IC50 [2] [nM] | Percentage increase in time (taken for cardiac rhythm disorders to appear relative to the controls) ([1]; dose 2.5 mg/kg, 2.5 mg/kg) [%] | Percentage increase in time (taken for cardiac rhythm disorders to appear relative to the controls) ([1]; dose 5 mg/kg, 5 mg/kg) [%] |
| --- | --- | --- | --- | --- | --- |
| O=C1C(c2ccc(Cl)c(Cl)c2)=CCCN1[C@@H]1CCCC[C@H]1N1CCCC1 (relative stereo) [Example 3, [Trans, (±)]-3-(3,4-dichlorophenyl)-5,6-dihydro-1-[2-(1-pyrrolidinyl)cyclohexyl)-2-(1H)-pyridinone] | 52 | 55 |  |  |  |
| COc1ccc(C2C(=O)CCN([C@@H]3CCCC[C@H]3N3CCCC3)C2=O)cc1OC (mixture of isomers) [Example 7, [Trans,(±)]-3-(3,4-dimethoxy-phenyl)-1-[2-(1-pyrrolidinyl)-cyclohexyl]-2,4-piperidinedione] |  |  | 0.2 |  |  |
| O=C1C(c2ccc(Cl)c(Cl)c2)CCCN1[C@@H]1CCCC[C@H]1N1CCCC1 (mixture of isomers) [Example 4, [Trans, (±)]-3-(3,4-dichlorophenyl)-1-[2-(1-pyrrolidinyl)-cyclohexyl]-2piperidinone] |  |  | 22 | 23 | 48 |
| O=C1C(c2ccc(Cl)c(Cl)c2)CCCN1[C@@H]1CCCC[C@H]1N1CCCC1 (mixture of isomers) [Example 5, [Trans, (±)]-3-(3,4-dichlorophenyl)-1-[2-(1-pyrrolidinyl)-cyclohexyl]-2-piperidinone] |  |  |  | 26 | 33 |
| COc1ccc(C2=CCCN([C@@H]3CCCC[C@H]3N3CCCC3)C2=O)cc1OC (relative stereo) [Example 8, [Trans-(±)]-5,6-dihydro-3-(3,4-dimethoxyphenyl)-1-[2(1-pyrrolidinyl)-cyclohexyl]-2-[1H)-pyridinone] |  |  | 9 |  |  |

— patent publication US5356907A, “1-cycloalkylpyridones as analgesics” (priority 1989, dated 1994)
